Data from ChEMBL document CHEMBL1201862, “PubChem BioAssay data set” (2004).
Blank lines part the entries; values can stand above or below the compound they belong to. Activity calls are given as the source filed them.

What was measured:
[1] = molecular target: T1, E3 ubiquitin-protein ligase XIAP (Homo sapiens, UniProt P98170); assay: small molecules displacing peptide from XIAP – biochemical, IAP family, fluorescence polarization (AID 1018); assay type: functional
[2] = molecular target: T1, E3 ubiquitin-protein ligase XIAP; assay: Counter Screen using XIAP-Bir3 for Chemical Antagonists of Bir1/2 domains of IAP-family anti-apoptotic proteins. [Related pubchem assays (depositor defined):AID1018, AID1449, AID1514, AID1638, AID1749, AID1750, AID488957, AID488963]
[3] = molecular target: T2, Intestinal-type alkaline phosphatase (Homo sapiens, UniProt P09923); assay: human intestinal alkaline phosphatase activators, dose response, biochemical, luminescence, uHTS hits (AID 463120); assay type: functional
[4] = molecular target: T2, Intestinal-type alkaline phosphatase; assay: Dose Response confirmation of uHTS hits from a small molecule inhibitors of human intestinal alkaline phosphatase via a luminescent assay. [Related pubchem assays (depositor defined):AID2544, AID2574]; assay type: functional
Cannabinoid receptor 2 [5] = molecular target: T3, Cannabinoid receptor 2 (Homo sapiens, UniProt P34972); assay: SAR analysis of agonists of the Cannabinoid Receptor 2 using an Image-Based Assay - Set 2. [Related pubchem assays (depositor defined):AID1961, AID1965]; assay type: functional
Cannabinoid receptor 2 [6] = molecular target: T3, Cannabinoid receptor 2; assay: SAR analysis of antagonists of the Cannabinoid Receptor 2 using an Image-Based Assay - Set 2. [Related pubchem assays (depositor defined):AID1961, AID1965]; assay type: functional
[7] = molecular target: G-protein coupled receptor 55 (Homo sapiens, UniProt Q9Y2T6); assay: SAR analysis of selective Agonists of GPR55 using an Image-Based Assay. [Related pubchem assays (depositor defined):AID1961, AID1965]; assay type: functional
Cannabinoid receptor 1 = Cannabinoid receptor 1 (Homo sapiens, UniProt P21554); assay: SAR analysis of antagonists of the Cannabinoid Receptor 1 using an Image-Based Assay. [Related pubchem assays (depositor defined):AID1961, AID1965]; assay type: functional
[8] = molecular target: Kappa-type opioid receptor (Homo sapiens, UniProt P41145); assay: SAR analysis of small molecule agonists of the kappa opioid receptor via a luminescent beta-arrestin assay - Set 3. [Related pubchem assays (depositor defined):AID1777, AID1785, AID1786, AID1966, AID2133, AID2136, AID2284, AID2500]; assay type: functional
[9] = molecular target: Signal transducer and activator of transcription 1-alpha/beta (Homo sapiens, UniProt P42224); assay: STAT3 blockade with qPCR and toxicity readouts – cell-based, STAT1 panel, cytotoxicity, late-stage follow-up, panel member STAT1 Inhibition (AID 2078)
[10] = molecular target: Signal transducer and activator of transcription 3 (Homo sapiens, UniProt P40763); assay: STAT3 blockade with qPCR and toxicity readouts – cell-based, STAT1 panel, cytotoxicity, late-stage follow-up, panel member STAT3 Inhibition (AID 2078)
Sequence of Signal transducer and activator of transcription 3 (P40763 whole entry): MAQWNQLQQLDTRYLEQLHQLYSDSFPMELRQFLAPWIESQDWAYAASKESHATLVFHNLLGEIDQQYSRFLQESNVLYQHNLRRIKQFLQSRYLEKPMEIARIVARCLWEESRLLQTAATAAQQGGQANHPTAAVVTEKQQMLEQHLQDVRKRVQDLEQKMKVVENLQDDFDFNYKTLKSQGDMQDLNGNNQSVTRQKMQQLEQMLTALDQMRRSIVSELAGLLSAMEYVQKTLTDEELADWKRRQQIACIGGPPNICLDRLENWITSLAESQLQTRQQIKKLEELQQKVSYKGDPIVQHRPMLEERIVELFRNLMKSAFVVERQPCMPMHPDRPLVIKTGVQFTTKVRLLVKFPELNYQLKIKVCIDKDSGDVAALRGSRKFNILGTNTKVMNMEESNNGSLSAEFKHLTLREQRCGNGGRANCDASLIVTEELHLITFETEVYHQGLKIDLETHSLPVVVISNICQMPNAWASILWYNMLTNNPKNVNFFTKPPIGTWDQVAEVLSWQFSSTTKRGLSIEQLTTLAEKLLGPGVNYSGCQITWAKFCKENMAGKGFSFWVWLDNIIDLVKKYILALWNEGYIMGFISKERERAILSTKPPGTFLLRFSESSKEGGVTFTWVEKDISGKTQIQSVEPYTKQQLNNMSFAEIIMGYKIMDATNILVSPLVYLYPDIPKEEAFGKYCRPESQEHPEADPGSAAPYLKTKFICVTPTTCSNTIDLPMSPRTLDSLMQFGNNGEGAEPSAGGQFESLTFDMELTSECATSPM

T1 sequence (P98170 whole entry): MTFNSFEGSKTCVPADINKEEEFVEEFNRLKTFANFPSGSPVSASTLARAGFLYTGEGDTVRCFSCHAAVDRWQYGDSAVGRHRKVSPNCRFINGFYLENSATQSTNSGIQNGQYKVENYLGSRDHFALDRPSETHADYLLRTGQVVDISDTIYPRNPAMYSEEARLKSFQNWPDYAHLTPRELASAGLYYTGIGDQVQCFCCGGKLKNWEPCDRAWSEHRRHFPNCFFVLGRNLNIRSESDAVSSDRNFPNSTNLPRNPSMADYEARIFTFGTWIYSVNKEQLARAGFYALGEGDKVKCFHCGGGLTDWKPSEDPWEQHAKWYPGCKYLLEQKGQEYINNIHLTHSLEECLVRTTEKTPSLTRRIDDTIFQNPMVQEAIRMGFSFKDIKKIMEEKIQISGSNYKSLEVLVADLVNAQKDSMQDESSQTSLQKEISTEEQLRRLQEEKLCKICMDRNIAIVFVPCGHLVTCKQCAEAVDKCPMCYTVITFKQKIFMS
T3 sequence (P34972 whole entry): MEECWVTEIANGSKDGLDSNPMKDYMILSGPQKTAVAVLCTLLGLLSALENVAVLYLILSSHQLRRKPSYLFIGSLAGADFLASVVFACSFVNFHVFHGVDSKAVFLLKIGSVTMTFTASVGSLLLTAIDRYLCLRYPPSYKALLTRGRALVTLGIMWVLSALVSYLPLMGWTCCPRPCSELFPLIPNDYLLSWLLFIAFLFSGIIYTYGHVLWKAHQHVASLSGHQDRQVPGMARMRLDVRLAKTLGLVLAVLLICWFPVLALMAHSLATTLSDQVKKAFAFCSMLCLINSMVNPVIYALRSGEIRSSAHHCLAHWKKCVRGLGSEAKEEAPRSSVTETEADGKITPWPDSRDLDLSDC
T2 sequence (P09923 whole entry): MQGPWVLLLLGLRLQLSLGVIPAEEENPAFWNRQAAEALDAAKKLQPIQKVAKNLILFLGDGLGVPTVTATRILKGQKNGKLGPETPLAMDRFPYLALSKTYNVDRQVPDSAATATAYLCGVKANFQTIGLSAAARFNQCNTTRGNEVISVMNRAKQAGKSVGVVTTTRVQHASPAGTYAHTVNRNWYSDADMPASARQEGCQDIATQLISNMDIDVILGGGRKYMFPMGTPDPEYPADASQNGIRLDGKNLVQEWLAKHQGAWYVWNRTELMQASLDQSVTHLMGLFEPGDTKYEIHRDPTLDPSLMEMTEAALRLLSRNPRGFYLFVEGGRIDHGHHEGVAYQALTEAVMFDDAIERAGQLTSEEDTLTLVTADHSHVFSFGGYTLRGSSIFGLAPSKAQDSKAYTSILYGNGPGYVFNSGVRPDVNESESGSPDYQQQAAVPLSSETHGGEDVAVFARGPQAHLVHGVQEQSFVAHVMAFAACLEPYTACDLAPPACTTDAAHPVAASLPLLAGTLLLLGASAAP
Sequence of G-protein coupled receptor 55 (Q9Y2T6 whole entry): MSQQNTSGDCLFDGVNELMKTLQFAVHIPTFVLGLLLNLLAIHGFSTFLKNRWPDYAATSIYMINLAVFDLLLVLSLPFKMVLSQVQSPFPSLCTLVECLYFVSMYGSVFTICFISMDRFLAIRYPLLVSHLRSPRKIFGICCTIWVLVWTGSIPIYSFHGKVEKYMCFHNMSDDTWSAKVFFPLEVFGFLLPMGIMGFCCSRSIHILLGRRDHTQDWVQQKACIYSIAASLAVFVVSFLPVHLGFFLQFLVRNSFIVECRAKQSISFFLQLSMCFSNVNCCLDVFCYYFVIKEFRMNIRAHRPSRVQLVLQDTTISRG
Sequence of Kappa-type opioid receptor (P41145 whole entry): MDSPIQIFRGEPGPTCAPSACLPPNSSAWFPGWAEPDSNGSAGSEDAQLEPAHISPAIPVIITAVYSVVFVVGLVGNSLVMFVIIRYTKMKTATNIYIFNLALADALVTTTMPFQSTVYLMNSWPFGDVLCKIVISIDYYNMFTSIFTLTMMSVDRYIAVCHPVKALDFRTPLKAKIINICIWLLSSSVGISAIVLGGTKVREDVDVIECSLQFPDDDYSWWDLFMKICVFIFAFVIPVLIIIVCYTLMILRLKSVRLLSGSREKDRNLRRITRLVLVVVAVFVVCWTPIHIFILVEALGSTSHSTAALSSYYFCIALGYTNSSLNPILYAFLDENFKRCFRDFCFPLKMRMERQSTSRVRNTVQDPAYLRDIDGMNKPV
Sequence of Signal transducer and activator of transcription 1-alpha/beta (P42224 whole entry): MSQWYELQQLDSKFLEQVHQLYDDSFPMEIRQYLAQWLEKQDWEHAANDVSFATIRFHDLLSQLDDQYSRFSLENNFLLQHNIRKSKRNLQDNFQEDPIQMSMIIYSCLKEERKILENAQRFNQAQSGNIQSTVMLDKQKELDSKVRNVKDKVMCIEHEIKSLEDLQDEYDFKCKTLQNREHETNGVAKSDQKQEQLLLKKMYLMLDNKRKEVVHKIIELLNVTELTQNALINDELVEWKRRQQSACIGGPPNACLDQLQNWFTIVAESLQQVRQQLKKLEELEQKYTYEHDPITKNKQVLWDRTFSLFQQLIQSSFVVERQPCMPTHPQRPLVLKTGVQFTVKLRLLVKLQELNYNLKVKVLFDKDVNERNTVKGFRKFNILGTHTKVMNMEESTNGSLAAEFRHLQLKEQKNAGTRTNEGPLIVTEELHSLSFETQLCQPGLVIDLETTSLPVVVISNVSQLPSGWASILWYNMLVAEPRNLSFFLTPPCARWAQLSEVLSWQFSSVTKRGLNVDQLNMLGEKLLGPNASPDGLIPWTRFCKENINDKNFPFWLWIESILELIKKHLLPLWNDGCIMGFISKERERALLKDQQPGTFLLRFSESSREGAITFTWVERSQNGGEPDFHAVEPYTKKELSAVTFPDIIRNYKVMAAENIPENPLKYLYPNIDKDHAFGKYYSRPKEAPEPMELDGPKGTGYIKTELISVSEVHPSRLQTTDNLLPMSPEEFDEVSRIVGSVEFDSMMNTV
Sequence of Cannabinoid receptor 1 (P21554 whole entry): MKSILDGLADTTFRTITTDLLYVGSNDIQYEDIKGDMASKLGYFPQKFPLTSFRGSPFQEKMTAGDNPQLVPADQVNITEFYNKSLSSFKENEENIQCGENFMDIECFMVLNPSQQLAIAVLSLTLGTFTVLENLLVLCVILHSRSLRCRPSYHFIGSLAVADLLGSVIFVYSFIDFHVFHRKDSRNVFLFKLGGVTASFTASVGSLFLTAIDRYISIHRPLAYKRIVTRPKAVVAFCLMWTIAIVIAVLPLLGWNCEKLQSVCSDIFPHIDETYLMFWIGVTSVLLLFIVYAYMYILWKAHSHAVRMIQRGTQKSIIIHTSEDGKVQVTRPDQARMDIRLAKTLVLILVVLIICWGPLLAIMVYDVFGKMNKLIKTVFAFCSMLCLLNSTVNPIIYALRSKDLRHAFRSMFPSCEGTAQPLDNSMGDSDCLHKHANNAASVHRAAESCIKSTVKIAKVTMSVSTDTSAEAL

IC50 [1]: > 100 µM (not active)
IC50 [2]: > 100 µM (inactive)
SMILES: CCN(Cc1ccccc1)C(=O)/C=C/c1ccccc1[N+](=O)[O-]

EC50 [3]: > 100 µM (inactive)
IC50 [4]: > 100 µM (inactive)
SMILES: CC(=O)c1ccc(NC(=O)C2CCCN2S(=O)(=O)c2cccs2)cc1 (stereo unspecified)

EC50 (Cannabinoid receptor 2 [5]): > 32 µM (inactive)
IC50 (Cannabinoid receptor 2 [6]): > 32 µM (inactive)
EC50 [7]: 0.658 µM (active)
IC50 (Cannabinoid receptor 1): > 32 µM (inactive)
SMILES: COc1ccc(-c2csc(NC(=O)CSc3nnc4c(C)cc5ccccc5n34)n2)cc1

EC50 [8]: 11.3 µM (inactive)
SMILES: Brc1ccc(CSc2nnc(-c3ccc(Br)cc3)n2Cc2ccco2)cc1

SMILES: c1ccc(CC2CCN(c3ncnc4scc(-c5ccccc5)c34)CC2)cc1
IC50 [9]: > 55.7 µM (inactive)
IC50 [10]: > 55.7 µM (inactive)
